Measured values from patent US10913727B2, “Modulators of the integrated stress pathway” (Calico Life Sciences LLC, priority 2016, dated 2021).

System: HEK293T cells carrying the ATF4 luciferase reporter
Assay: ATF4-Luc assay, in vitro model of Vanishing Cell White Matter Disease (VWMD)
Format: cell-based
Settings: Homo sapiens, HEK-293T, 1 μg/mL tunicamycin, 7 hours, One Glo luminescence
Method in brief: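 Reporter cells were stably generated by retroviral transduction and puromycin selection, then seeded at 30,000 cells/well. Next day, cells received 1 μg/mL tunicamycin with 200 nM test compound for 7 h, and luciferase luminescence was read with a one-step reagent. Values reported as EC50.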

SMILES | EC50 [µM]
O=C(COc1ccc(Cl)c(F)c1)NC12CC(Nc3c(Cl)cnn(CC(F)(F)F)c3=O)(C1)C2 [Compound 417, 2-(4-chloro-3-fluorophenoxy)-N-(3-{[5-chloro-3-oxo-2-(2,2,2-trifluoroethyl)-2,3-dihydropyridazin-4-yl]amino}bicyclo[1.1.1]pentan-1-yl)acetamide] | 0.25 to 1
O=C(COc1ccc(Cl)c(F)c1)NC12CC(NC(=O)c3cccnc3)(C1)C2 [Compound 130, N-{3-[2-(4-chloro-3-fluorophenoxy)acetamido]bicyclo[1.1.1]pentan-1-yl}pyridine-3-carboxamide] | 0.05 to 0.25
N#Cc1cncc(NC23CC(NC(=O)COc4ccc(Cl)c(F)c4)(C2)C3)n1 [Compound 745, 2-(4-chloro-3-fluorophenoxy)-N-{3-[(6-cyanopyrazin-2-yl)amino]bicyclo[1.1.1]pentan-1-yl}acetamide] | > 2
O=C(COc1ccc(Cl)c(F)c1)NC12CC(NC(=O)c3cc(CCO)ccn3)(C1)C2 [Compound 282, N-{3-[2-(4-chloro-3-fluorophenoxy)acetamido]bicyclo[1.1.1]pentan-1-yl}-4-(2-hydroxyethyl)pyridine-2-carboxamide] | 0.25 to 1
Cc1nc(C(=O)NC23CCC(NC(=O)COc4ccc(Cl)c(F)c4)(CC2)C(O)C3)c(C)o1 (stereo not drawn) [Compound 472, N-{4-[2-(4-chloro-3-fluorophenoxy)acetamido]-3-hydroxybicyclo[2.2.2]octan-1-yl}-2,5-dimethyl-1,3-oxazole-4-carboxamide] | 0.25 to 1
Cc1ncsc1C(=O)NC12CC(NC(=O)COc3ccc(Cl)c(F)c3)(C1)C2 [Compound 558, N-{3-[2-(4-chloro-3-fluorophenoxy)acetamido]bicyclo[1.1.1]pentan-1-yl}-4-methyl-1,3-thiazole-5-carboxamide] | 1 to 2
Cc1nc(C(=O)NC23CCC(NC(=O)COc4ccc(Cl)c(F)c4)(CC2)C(O)C3)cs1 (stereo not drawn) [Compound 473, N-{4-[2-(4-chloro-3-fluorophenoxy)acetamido]-3-hydroxybicyclo[2.2.2]octan-1-yl}-2-methyl-1,3-thiazole-4-carboxamide] | 0.05 to 0.25
Cc1cc(C(=O)NC23CC(NC(=O)COc4ccc(Cl)c(F)c4)(C2)C3)n(CC(C)(C)O)n1 [Compound 459, N-{3-[2-(4-chloro-3-fluorophenoxy)acetamido]bicyclo[1.1.1]pentan-1-yl}-1-(2-hydroxy-2-methylpropyl)-3-methyl-1H-pyrazole-5-carboxamide] | > 2
O=C(COc1ccc(Cl)c(F)c1)NC12CC(NC(=O)c3ccc(Cn4cncn4)cc3)(C1)C2 [Compound 849, N-{3-[2-(4-chloro-3-fluorophenoxy)acetamido]bicyclo[1.1.1]pentan-1-yl}-4-[(1H-1,2,4-triazol-1-yl)methyl]benzamide] | 1 to 2
CCc1ccc(C(=O)NC23CC(NC(=O)COc4ccc(Cl)c(F)c4)(C2)C3)nc1 [Compound 145, N-{3-[2-(4-chloro-3-fluorophenoxy)acetamido]bicyclo[1.1.1]pentan-1-yl}-5-ethylpyridine-2-carboxamide] | 0.05 to 0.25
Cn1nc(C(=O)NC23CC(NC(=O)COc4ccc(Cl)c(F)c4)(C2)C3)c2c1CCC2 [Compound 877, N-{3-[2-(4-chloro-3-fluorophenoxy)acetamido]bicyclo[1.1.1]pentan-1-yl}-1-methyl-1,4,5,6-tetrahydrocyclopenta[c]pyrazole-3-carboxamide] | > 2
CCNC(=O)c1ccc(C(=O)NC23CC(NC(=O)COc4ccc(Cl)c(F)c4)(C2)C3)nc1 [Compound 270, N^2-{3-[2-(4-chloro-3-fluorophenoxy)acetamido]bicyclo[1.1.1]pentan-1-yl}-N^5-ethylpyridine-2,5-dicarboxamide] | > 2
O=C(COc1ccc(Cl)c(Cl)c1)NC12CC(NC(=O)c3cnoc3)(C1)C2 [Compound 921, N-{3-[2-(3,4-dichlorophenoxy)acetamido]bicyclo[1.1.1]pentan-1-yl}-1,2-oxazole-4-carboxamide] | 1 to 2
COCc1ccc(C(=O)NC23CC(NC(=O)COc4ccc(Cl)c(F)c4)(C2)C3)o1 [Compound 242, N-{3-[2-(4-chloro-3-fluorophenoxy)acetamido]bicyclo[1.1.1]pentan-1-yl}-5-(methoxymethyl)furan-2-carboxamide] | 0.05 to 0.25
Cc1cc2c(NC34CC(NC(=O)COc5ccc(Cl)c(Cl)c5)(C3)C4)nccn2n1 [Compound 494, 2-(3,4-dichlorophenoxy)-N-{3-[(2-methylpyrazolo[1,5-a]pyrazin-4-yl)amino]bicyclo[1.1.1]pentan-1-yl}acetamide] | < 0.05
Cc1nc(C(=O)NC23CCC(NC(=O)COc4ccc(Cl)c(F)c4)(CC2)C(O)C3)co1 (stereo not drawn) [Compound 467, N-{4-[2-(4-chloro-3-fluorophenoxy)acetamido]-3-hydroxybicyclo[2.2.2]octan-1-yl}-2-methyl-1,3-oxazole-4-carboxamide] | 0.05 to 0.25
O=C(COc1ccc(Cl)c(F)c1)NC12CC(NC(=O)c3ccc4nccnc4c3)(C1)C2 [Compound 766, N-{3-[2-(4-chloro-3-fluorophenoxy)acetamido]bicyclo[1.1.1]pentan-1-yl}quinoxaline-6-carboxamide] | > 2

SMILES | EC50 [µM]
O=C(COc1ccc(Cl)c(F)c1)NC12CC(NC(=O)c3ccc(OC4COC4)nc3)(C1)C2 [Compound 237, N-{3-[2-(4-chloro-3-fluorophenoxy)acetamido]bicyclo[1.1.1]pentan-1-yl}-6-[(oxetan-3-yl)oxy]pyridine-3-carboxamide] | 0.25 to 1
O=C(COc1ccc(Cl)c(Cl)c1)NC12CC(NC(=O)c3ccncn3)(C1)C2 [Compound 261, N-{3-[2-(3,4-dichlorophenoxy)acetamido]bicyclo[1.1.1]pentan-1-yl}pyrimidine-4-carboxamide] | 0.25 to 1
Cc1cnc(C(=O)NC23CCC(NC(=O)COc4ccc(Cl)c(F)c4)(CC2)C[C@@H]3O)cn1 [Compound 733, N-{(2S)-4-[2-(4-chloro-3-fluorophenoxy)acetamido]-2-hydroxybicyclo[2.2.2]octan-1-yl}-5-methylpyrazine-2-carboxamide] | > 2
O=C(COc1ccc(Cl)c(F)c1)NC12CC(NC(=O)c3ccn[nH]3)(C1)C2 [Compound 320, N-{3-[2-(4-chloro-3-fluorophenoxy)acetamido]bicyclo[1.1.1]pentan-1-yl}-1H-pyrazole-5-carboxamide] | 1 to 2
COc1ccccc1C(=O)NC12CC(NC(=O)COc3ccc(Cl)c(F)c3)(C1)C2 [Compound 529, N-{3-[2-(4-chloro-3-fluorophenoxy)acetamido]bicyclo[1.1.1]pentan-1-yl}-2-methoxybenzamide] | > 2
O=C(COc1ccc(Cl)c(F)c1)NC12CCC(NC(=O)c3ccc(OC(F)F)cn3)(C1)C2 [Compound 337, N-{4-[2-(4-chloro-3-fluorophenoxy)acetamido]bicyclo[2.1.1]hexan-1-yl}-5-(difluoromethoxy)pyridine-2-carboxamide] | 0.25 to 1
O=C(COc1ccc(Cl)c(F)c1)NC12CCC(NC(=O)c3cc(C4CCCCC4)no3)(CC1)CC2O (stereo not drawn) [Compound 408, N-{4-[2-(4-chloro-3-fluorophenoxy)acetamido]-3-hydroxybicyclo[2.2.2]octan-1-yl}-3-cyclohexyl-1,2-oxazole-5-carboxamide] | > 2
O=C(COc1ccc(Cl)c(F)c1)NC12CC(NC(=O)c3cn[nH]c3)(C1)C2 [Compound 310, N-{3-[2-(4-chloro-3-fluorophenoxy)acetamido]bicyclo[1.1.1]pentan-1-yl}-1H-pyrazole-4-carboxamide] | > 2
COc1cc(C(=O)NC23CCC(NC(=O)COc4ccc(Cl)c(F)c4)(C2)C3)on1 [Compound 707, N-{4-[2-(4-chloro-3-fluorophenoxy)acetamido]bicyclo[2.1.1]hexan-1-yl}-3-methoxy-1,2-oxazole-5-carboxamide] | 0.25 to 1
O=C(COc1ccc(Cl)c(F)c1)NC12CC(NC(=O)c3cccc(-n4cnnc4)c3)(C1)C2 [Compound 902, N-{3-[2-(4-chloro-3-fluorophenoxy)acetamido]bicyclo[1.1.1]pentan-1-yl}-3-(4H-1,2,4-triazol-4-yl)benzamide] | > 2
CN(C)CCOc1ccccc1C(=O)NC12CC(NC(=O)COc3ccc(Cl)c(F)c3)(C1)C2 [Compound 549, N-{3-[2-(4-chloro-3-fluorophenoxy)acetamido]bicyclo[1.1.1]pentan-1-yl}-2-[2-(dimethylamino)ethoxy]benzamide] | > 2
Cc1cncc(C(=O)NC23CCC(NC(=O)COc4ccc(Cl)c(F)c4)(CC2)C[C@@H]3O)n1 [Compound 734, N-{(2S)-4-[2-(4-chloro-3-fluorophenoxy)acetamido]-2-hydroxybicyclo[2.2.2]octan-1-yl}-6-methylpyrazine-2-carboxamide] | < 0.05
Cc1cc(C)n2nc(C(=O)NC34CCC(NC(=O)COc5ccc(Cl)c(F)c5)(CC3)[C@@H](O)C4)nc2n1 [Compound 750, N-{(3S)-4-[2-(4-chloro-3-fluorophenoxy)acetamido]-3-hydroxybicyclo[2.2.2]octan-1-yl}-5,7-dimethyl[1,2,4]triazolo[1,5-a]pyrimidine-2-carboxamide] | > 2
COc1cccc(C(=O)NC23CC(NC(=O)COc4ccc(Cl)c(F)c4)(C2)C3)c1 [Compound 301, N-{3-[2-(4-chloro-3-fluorophenoxy)acetamido]bicyclo[1.1.1]pentan-1-yl}-3-methoxybenzamide] | 0.25 to 1
O=C(COc1ccc(Cl)c(F)c1)NC12CCC(NC(=O)c3ccc(OC(F)(F)F)nc3)(CC1)CC2O (stereo not drawn) [Compound 451, N-{4-[2-(4-chloro-3-fluorophenoxy)acetamido]-3-hydroxybicyclo[2.2.2]octan-1-yl}-6-(trifluoromethoxy)pyridine-3-carboxamide] | < 0.05
O=C(COc1ccc(Cl)c(Cl)c1)NC12CC(NC(=O)c3ccc(OC(F)(F)F)nc3)(C1)C2 [Compound 147, N-{3-[2-(3,4-dichlorophenoxy)acetamido]bicyclo[1.1.1]pentan-1-yl}-6-(trifluoromethoxy)pyridine-3-carboxamide] | 0.05 to 0.25
